Experimental findings from PMC7828211, “LysM Receptor-Like Kinase LYK9 of Pisum Sativum L. May Regulate Plant Responses to Chitooligosaccharides Differing in Structure” (International Journal of Molecular Sciences, 2021) are described below.

In one assay the target is T1, PsLYK9-ECD (Lathyrus oleraceus, UniProt A0A9D5AD18).
T1 construct: gene KIW84_053210; corresponds to residues 31-235), GP67 signal in vector, 6xHis tag, Sf9 cells, predicted 23 kDa, about 35 kDa on blot; RED-tris-NTA labelled
T1 sequence (A0A9D5AD18 26-230): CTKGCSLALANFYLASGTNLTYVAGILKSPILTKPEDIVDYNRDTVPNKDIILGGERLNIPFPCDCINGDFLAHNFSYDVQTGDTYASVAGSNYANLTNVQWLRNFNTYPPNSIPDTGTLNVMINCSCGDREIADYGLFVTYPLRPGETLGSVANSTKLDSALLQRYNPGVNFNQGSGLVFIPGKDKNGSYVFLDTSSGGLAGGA
The assay can be described thus: microscale thermophoresis. It counts as binding. The note with it: 50 mM Tris pH 7.4, 10 mM MgCl2, 150 mM NaCl, 0.05% Tween 20, 25 °C; 20 nM RED-tris-NTA labelled protein; read-out: Kd, μM (±SD). The source says:
microscale thermophoresis on PsLYK9-ECD
(In general: In MST a laser heats a spot of the sample, and binding alters the fluorescence response.)

A further assay deals with T2, PsLYR4-ECD.
T2 construct: gene LYR4; corresponds to residues 8-257), GP67 signal in vector, 6xHis tag, Sf9 cells, predicted 27 kDa, about 32 kDa on blot; RED-tris-NTA labelled
The assay can be described thus: microscale thermophoresis. It counts as binding, Pisum sativum. The note with it: 50 mM Tris pH 7.4, 10 mM MgCl2, 150 mM NaCl, 0.05% Tween 20, 25 °C, 20 nM RED-tris-NTA labelled protein. From the text: microscale thermophoresis on PsLYR4-ECD

Read-outs that look alike come from different tables or passages of the source.

For orientation: Kd means a measure of binding affinity in units of concentration. On to `CC(=O)N[C@H]1[C@H](O[C@H]2[C@H](O)[C@@H](NC(C)=O)[C@H](O[C@H]3[C@H](O)[C@@H](NC(C)=O)C(O)O[C@@H]3CO)O[C@@H]2CO)O[C@H](CO)[C@@H](O[C@@H]2O[C@H](CO)[C@@H](O[C@@H]3O[C@H](CO)[C@@H](O)[C@H](O)[C@H]3NC(C)=O)[C@H](O)[C@H]2NC(C)=O)[C@@H]1O` (stereo partly shown) [CO5], for which, on PsLYK9-ECD, the Kd came to 5 ± 1.9 µM. In the case of `N[C@H]1[C@H](O[C@H]2[C@H](O)[C@@H](N)[C@H](O[C@H]3[C@H](O)[C@@H](N)[C@H](O[C@H]4[C@H](O)[C@@H](N)[C@H](O[C@H]5[C@H](O)[C@@H](N)C(O)O[C@@H]5CO)O[C@@H]4CO)O[C@@H]3CO)O[C@@H]2CO)O[C@H](CO)[C@@H](O)[C@@H]1O` (stereo partly shown) [CO5-DA], the Kd was 76 ± 25 µM at PsLYK9-ECD and 45 ± 20 µM on PsLYR4-ECD (read-out: Kd, μM (±SD)). Turning to `N[C@H]1[C@H](O[C@H]2[C@H](O)[C@@H](N)[C@H](O[C@H]3[C@H](O)[C@@H](N)[C@H](O[C@H]4[C@H](O)[C@@H](N)[C@H](O[C@H]5[C@H](O)[C@@H](N)[C@H](O[C@H]6[C@H](O)[C@@H](N)[C@H](O[C@H]7[C@H](O)[C@@H](N)C(O)O[C@@H]7CO)O[C@@H]6CO)O[C@@H]5CO)O[C@@H]4CO)O[C@@H]3CO)O[C@@H]2CO)O[C@H](CO)[C@@H](O)[C@@H]1O` (stereo partly shown) [CO7-DA], the Kd at PsLYK9-ECD came out at 31 ± 11 µM; at PsLYR4-ECD (read-out: Kd, μM (±SD)), 19 ± 13 µM. Consider `N[C@H]1[C@H](O[C@H]2[C@H](O)[C@@H](N)[C@H](O[C@H]3[C@H](O)[C@@H](N)[C@H](O[C@H]4[C@H](O)[C@@H](N)[C@H](O[C@H]5[C@H](O)[C@@H](N)[C@H](O[C@H]6[C@H](O)[C@@H](N)C(O)O[C@@H]6CO)O[C@@H]5CO)O[C@@H]4CO)O[C@@H]3CO)O[C@@H]2CO)O[C@H](CO)[C@@H](O)[C@@H]1O` (stereo partly shown) [CO6-DA], for which the Kd on PsLYK9-ECD turned out to be 42 ± 23 µM; on PsLYR4-ECD (read-out: Kd, μM (±SD)) it was 22 ± 11 µM. As for `CC(=O)N[C@H]1[C@H](O[C@H]2[C@H](O)[C@@H](NC(C)=O)C(O)O[C@@H]2CO)O[C@H](CO)[C@@H](O[C@@H]2O[C@H](CO)[C@@H](O[C@@H]3O[C@H](CO)[C@@H](O)[C@H](O)[C@H]3NC(C)=O)[C@H](O)[C@H]2NC(C)=O)[C@@H]1O` (stereo partly shown) [CO4], on PsLYK9-ECD, the Kd is 2.1 ± 0.6 µM.

As for CO8-DA, the values for the Kd on PsLYK9-ECD and at PsLYR4-ECD (read-out: Kd) were 26 ± 15 µM and 8 ± 5 µM, respectively.
